This passage reports IC50 results from patent US8445480B2, “CETP inhibitors derived from benzoxazole arylamides” (Merck Sharp & Dohme Corp., priority 2007, dated 2013).

In the assay the target is T1, recombinant human CETP (Homo sapiens, UniProt P11597).
T1 construct: made in house; host or cells: CHO cells
T1 sequence (P11597 18-493): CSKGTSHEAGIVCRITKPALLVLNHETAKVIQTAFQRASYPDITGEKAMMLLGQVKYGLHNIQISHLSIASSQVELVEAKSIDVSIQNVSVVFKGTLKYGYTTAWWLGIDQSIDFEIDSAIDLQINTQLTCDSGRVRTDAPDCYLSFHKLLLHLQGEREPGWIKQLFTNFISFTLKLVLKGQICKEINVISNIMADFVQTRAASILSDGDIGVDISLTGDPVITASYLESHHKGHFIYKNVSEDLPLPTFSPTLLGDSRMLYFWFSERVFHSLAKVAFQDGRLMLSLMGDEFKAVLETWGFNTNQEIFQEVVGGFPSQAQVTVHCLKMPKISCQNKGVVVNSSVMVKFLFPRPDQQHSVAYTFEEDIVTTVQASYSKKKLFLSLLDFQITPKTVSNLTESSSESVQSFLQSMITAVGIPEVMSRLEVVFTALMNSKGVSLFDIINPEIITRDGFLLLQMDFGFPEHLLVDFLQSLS
As to the kind of experiment: CETP assay, in vitro continuous fluorescence assay of CE transfer (BODIPY-CE donor particles). In kind it is biochemical. Conditions: CE transfer reaction, 3% human serum, 25° C.; read-out: IC50 value as measured for the CE transfer reaction. The protocol: An in vitro continuous assay for determining IC50's to identify compounds that are CETP inhibitors was performed based on a modification of the method described by Epps et al. employing BODIPY®-CE as the cholesteryl ester lipid donor and BODIPY®-TG as the triglyceride lipid donor. See Epps et al. (1995) Method for measuring the activities of cholesteryl ester transfer protein (lipid transfer protein), Chem. Phys. Lipids. 77, 51-63.
Particles used in the assay were created from the following materials by probe sonication essentially as described by Epps et al. Synthetic cholesteryl ester (CE) donor HDL particles contained DOPC (Dioleoyl Phosphatidyl Choline), BODIPY®-CE (Molecular Probes C-3927), triolein (a triglyceride), dabcyl dicetylamide, (a non-diffusible quencher molecule to reduce background fluorescence) and apoHDL. Synthetic triglyceride (TG) donor HDL particles contained DOPC, BODIPY®-TG, and apoHDL. […] Particle concentrations were expressed in terms of protein concentration as determined by BCA assay (Pierce, USA). […]
Assays were performed in Dynex Microfluor 2 U-bottom black 96-well plates (Cat #7205). […] CE transfer reactions were performed as follows: final concentrations of materials were: 2.5 ng/μCE donor particles, 7.5 ng/μL acceptor particles (each expressed by protein content), 1×CETP buffer, 14-30 nM recombinant human CETP (expressed in CHO cells and partially purified), and up to 2% DMSO when testing compounds; reactions were followed in a fluorescence plate reader (Molecular Devices Spectramax GeminiXS) set for a 45 minute kinetic run at 25° C. which read the samples every 45 sec at Ex=480 nm, Em=511 nm, with a cutoff filter at 495 nm, photomultiplier tube setting of medium, calibration on, and 6 reads/well. […] TG transfer was measured at an excitation wavelength of 538 nm while reading emission at 568 nm every 45 sec for 45 min at 37° C. with a cutoff filter at 550 nm.
Data were evaluated by obtaining an initial rate, expressed in relative fluorescence units per second, for the pseudolinear portion of the curve, often 0-500 or 1000 sec. […]
One may read the IC50 as the concentration at which inhibition is half-maximal. On to `CC(C)c1cc(C#N)cc2nc(-c3ccc(C(=O)NCC4CCN(c5nccc(C(F)(F)F)n5)CC4)cc3)oc12` [Example 1, 4-(5-Cyano-7-isopropyl-1,3-benzoxazol-2-yl)-N-({1-[4-(trifluoromethyl)pyrimidin-2-yl]piperidin-4-yl}methyl)benzamide], for which the 50% inhibitory concentration (IC50) was in the range of 13 to 60 nM.
For `CC(C)c1cc(C#N)cc2nc(-c3ccc(C(=O)NCC4CCN(c5ccc(C(F)(F)F)cn5)CC4)cc3)oc12` [Example 3] the value was 13 to 60 nM.
For `CC(C)c1cc(C#N)cc2nc(-c3ccc(C(=O)NCC4CCN(Cc5cccc(C(F)(F)F)c5)CC4)cc3)oc12` [Example 58], the IC50 fell in the range of 13 to 60 nM.
